ChEMBL document CHEMBL1154080, “2D-QSAR and 3D-QSAR/CoMFA analyses of the N-terminal substituted anthranilic acid based CCK(1) receptor antagonists: 'Hic Rhodus, hic saltus'” (Bioorg Med Chem, 2009)

Legend:
Cavia porcellus [1] = species on record: Cavia porcellus; test: Displacement of [125I]-CCK8 from CCK2 receptor in guinea pig cerebral cortex at 30 uM; assay type: tissue-based
[2] = biological target: T1, Cholecystokinin receptor type A (Rattus norvegicus) (UniProt P30551); test: Displacement of [125I]-CCK8 from CCK1 receptor in rat pancreatic acinar cells 10 uM
T1 sequence (whole entry): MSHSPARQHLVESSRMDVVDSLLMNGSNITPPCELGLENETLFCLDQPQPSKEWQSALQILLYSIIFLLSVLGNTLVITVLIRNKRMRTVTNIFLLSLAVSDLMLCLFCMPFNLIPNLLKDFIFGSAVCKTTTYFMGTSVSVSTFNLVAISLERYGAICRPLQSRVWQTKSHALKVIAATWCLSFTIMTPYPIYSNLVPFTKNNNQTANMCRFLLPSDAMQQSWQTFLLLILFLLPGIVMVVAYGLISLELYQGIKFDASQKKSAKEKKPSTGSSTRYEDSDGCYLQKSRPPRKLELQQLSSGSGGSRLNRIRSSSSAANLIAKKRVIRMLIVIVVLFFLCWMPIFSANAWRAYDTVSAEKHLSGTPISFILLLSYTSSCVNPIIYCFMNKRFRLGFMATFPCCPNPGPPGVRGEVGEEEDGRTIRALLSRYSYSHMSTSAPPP

[3] = (§1) Displacement of [125I]-CCK8 from CCK2 receptor in guinea pig cerebral cortex; assay type: tissue-based, Cavia porcellus
[4] = biological target: T2, Cholecystokinin receptor type A (Rattus norvegicus, UniProt P30551); test: Displacement of [125I]-CCK8 from CCK1 receptor in rat pancreatic acinar cells
T2 sequence (P30551 whole entry): T1 sequence (whole entry)

[5] = biological target: T1, Cholecystokinin receptor type A (Rattus norvegicus); test: Displacement of [125I]-CCK8 from CCK1 receptor in rat pancreatic acinar cells at 3 uM
Cavia porcellus [6] = species on record: Cavia porcellus; test: Displacement of [125I]-CCK8 from CCK2 receptor in guinea pig cerebral cortex at 10 uM; assay type: tissue-based
[7] = biological target: T1, Cholecystokinin receptor type A (Rattus norvegicus); test: Displacement of [125I]-CCK8 from CCK1 receptor in rat pancreatic acinar cells 30 uM
Cavia porcellus [8] = species on record: Cavia porcellus; test: Displacement of [125I]-CCK8 from CCK2 receptor in guinea pig cerebral cortex at 3 uM; assay type: tissue-based
[9] = biological target: T1, Cholecystokinin receptor type A (Rattus norvegicus); test: Displacement of [125I]-CCK8 from CCK1 receptor in rat pancreatic acinar cells at 1 uM
Cavia porcellus [10] = species on record: Cavia porcellus; test: as §1; assay type: tissue-based; details: concentration not given here

SMILES	IC50 [3]	IC50 [4]	further results
CC(C)(C)C(=O)Nc1ccccc1C(=O)NC(Cc1ccccc1)C(=O)O (racemic)	–	–	inhibition (Cavia porcellus [1]): 24%; inhibition [2]: < 20%
O=C(NC(Cc1ccccc1)C(=O)O)c1ccccc1NS(=O)(=O)c1cccc2ccccc12 (racemic)	5.9 µM	–	inhibition [2]: < 20%
O=C(Nc1ccccc1C(=O)NC(Cc1ccccc1)C(=O)O)c1ccccn1 (racemic)	–	–	inhibition [5]: < 20%; inhibition (Cavia porcellus [1]): 31%
O=C(Nc1ccccc1C(=O)NC(Cc1ccccc1)C(=O)O)c1ccc2[nH]ccc2c1 (racemic)	–	–	inhibition [2]: 41%
O=C(CCc1ccccc1)Nc1ccccc1C(=O)NC(Cc1ccccc1)C(=O)O (racemic)	–	–	inhibition (Cavia porcellus [1]): 37%; inhibition [2]: < 20%
O=C(Nc1ccccc1C(=O)NC(Cc1ccccc1)C(=O)O)C1=Cc2ccccc2C1 (racemic)	–	–	inhibition (Cavia porcellus [6]): < 20%
O=C(CC12CC3CC(CC(C3)C1)C2)Nc1ccccc1C(=O)NC(Cc1ccccc1)C(=O)O (racemic)	15.4 µM	–	inhibition [7]: 51%
O=C(Nc1ccccc1C(=O)NC(Cc1ccccc1)C(=O)O)c1ccncc1 (racemic)	–	–	inhibition [5]: < 20%; inhibition (Cavia porcellus [1]): 26%
O=C(Nc1ccccc1C(=O)NC(Cc1ccccc1)C(=O)O)c1cc2ccccc2o1 (racemic)	13.7 µM	0.891 µM	–
O=C(NC(Cc1ccccc1)C(=O)O)c1ccccc1NS(=O)(=O)c1ccc2ccccc2c1 (racemic)	7.31 µM	–	inhibition [2]: < 20%
O=C(Nc1ccccc1C(=O)NC(Cc1ccccc1)C(=O)O)c1cccnc1 (racemic)	–	–	inhibition [5]: < 20%; inhibition (Cavia porcellus [1]): 44%
O=C(Nc1ccccc1C(=O)NC(Cc1ccccc1)C(=O)O)c1cc2cc(OCc3ccccc3)ccc2[nH]1 (racemic)	–	–	inhibition (Cavia porcellus [8]): < 20%; inhibition [9]: < 20%
O=C(Nc1ccccc1C(=O)NC(Cc1ccccc1)C(=O)O)c1cnccn1 (racemic)	–	–	inhibition [5]: < 20%; inhibition (Cavia porcellus [1]): < 20%
Cn1c(C(=O)Nc2ccccc2C(=O)NC(Cc2ccccc2)C(=O)O)cc2ccccc21 (racemic)	10 µM	–	–
O=C(Nc1ccccc1C(=O)NC(Cc1ccccc1)C(=O)O)C1=CC2CCCC2N1 (racemic)	60.5 µM	13.1 µM	–
O=C(CCc1c[nH]c2ccccc12)Nc1ccccc1C(=O)NC(Cc1ccccc1)C(=O)O (racemic)	13.4 µM	–	–
O=C(Nc1ccccc1C(=O)NC(Cc1ccccc1)C(=O)O)c1ccc[nH]1 (racemic)	–	–	inhibition [5]: < 20%
O=C(Cc1ccccc1)Nc1ccccc1C(=O)NC(Cc1ccccc1)C(=O)O (racemic)	–	–	inhibition (Cavia porcellus [1]): 36%; inhibition [2]: < 20%
CC(C)(C)CC(=O)Nc1ccccc1C(=O)NC(Cc1ccccc1)C(=O)O (racemic)	–	–	inhibition (Cavia porcellus [1]): 37%; inhibition [2]: < 20%

SMILES	IC50 [3]	IC50 [4]	further results
O=C(NC(Cc1ccccc1)C(=O)O)c1ccccc1NC(=O)C12CC3CC(CC(C3)C1)C2 (racemic)	14.5 µM	–	inhibition [2]: < 20%
O=C(Nc1ccccc1C(=O)NC(Cc1ccccc1)C(=O)O)c1cccs1 (racemic)	–	2.56 µM	inhibition (Cavia porcellus [1]): 24%
O=C(Nc1ccccc1C(=O)NC(Cc1ccccc1)C(=O)O)c1ccc2ccccc2n1 (racemic)	14.6 µM	–	inhibition [2]: 48%
O=C(NC(Cc1ccccc1)C(=O)O)c1ccccc1NC(=O)c1c[nH]c2ccccc12 (racemic)	30.2 µM	–	–
O=C(/C=C/c1ccccc1)Nc1ccccc1C(=O)NC(Cc1ccccc1)C(=O)O (racemic)	–	–	inhibition (Cavia porcellus [1]): 49%
Cn1c(C(=O)Nc2ccccc2C(=O)NC(Cc2ccccc2)C(=O)O)cc2cc([N+](=O)[O-])ccc21 (racemic)	–	1.11 µM	inhibition (Cavia porcellus [8]): < 20%
O=C(Nc1ccccc1C(=O)NC(Cc1ccccc1)C(=O)O)c1cc2c([nH]1)CCCC2 (racemic)	70 µM	–	–
O=C(NC(Cc1ccccc1)C(=O)O)c1ccccc1NC(=O)c1ccnc2ccccc12 (racemic)	15 µM	–	inhibition [5]: < 20%
O=C(NC(Cc1ccccc1)C(=O)O)c1ccccc1NC(=O)c1nccc2ccccc12 (racemic)	–	13.3 µM	inhibition (Cavia porcellus [1]): 53%
Cn1cccc1C(=O)Nc1ccccc1C(=O)NC(Cc1ccccc1)C(=O)O (racemic)	–	–	inhibition [5]: 21%
O=C(Nc1ccccc1C(=O)NC(Cc1ccccc1)C(=O)O)c1cnc2ccccc2c1 (racemic)	18.7 µM	–	–
CC1=C(C(=O)Nc2ccccc2C(=O)NC(Cc2ccccc2)C(=O)O)Cc2ccccc21 (racemic)	13.7 µM	–	–
O=C(Nc1ccccc1C(=O)NC(Cc1ccccc1)C(=O)O)c1ccco1 (racemic)	–	–	inhibition [5]: 24%; inhibition (Cavia porcellus [1]): 27%
O=C(Cc1c[nH]c2ccccc12)Nc1ccccc1C(=O)NC(Cc1ccccc1)C(=O)O (racemic)	–	–	inhibition (Cavia porcellus [1]): 23%; inhibition [2]: < 20%
O=C(Nc1ccccc1C(=O)NC(Cc1ccccc1)C(=O)O)c1cc2ccccc2s1 (racemic)	10.8 µM	–	–
O=C(/C=C/c1ccccc1[N+](=O)[O-])Nc1ccccc1C(=O)NC(Cc1ccccc1)C(=O)O (racemic)	–	–	inhibition [5]: < 20%; inhibition (Cavia porcellus [1]): 46%
COc1cc2cc(C(=O)Nc3ccccc3C(=O)NC(Cc3ccccc3)C(=O)O)[nH]c2cc1OC (racemic)	–	–	inhibition (Cavia porcellus [8]): < 20%; inhibition [9]: < 20%
O=C(NC(Cc1ccccc1)C(=O)O)c1ccccc1NC(=O)c1cccc2ccccc12 (racemic)	6.57 µM	–	inhibition [2]: < 20%

Now from value to compound, other results behind:

IC50 [3]	IC50 [4]	SMILES	further results
11.2 µM	0.538 µM	O=C(Nc1ccccc1C(=O)NC(Cc1ccccc1)C(=O)O)c1cc2cccc(C(F)(F)F)c2[nH]1 (racemic)	–
18.7 µM	0.159 µM	O=C(Nc1ccccc1C(=O)NC(Cc1ccccc1)C(=O)O)c1cc2cccc(F)c2[nH]1 (racemic)	–
17.1 µM	–	COc1ccc2[nH]c(C(=O)Nc3ccccc3C(=O)NC(Cc3ccccc3)C(=O)O)cc2c1 (racemic)	inhibition [5]: 42%
–	1.84 µM	O=C(Nc1ccccc1C(=O)NC(Cc1ccccc1)C(=O)O)c1cc2cc(Cl)ccc2[nH]1 (racemic)	inhibition (Cavia porcellus [1]): 31%
19.8 µM	0.055 µM	O=C(Nc1ccccc1C(=O)N[C@H](Cc1ccccc1)C(=O)O)c1cc2cccc(F)c2[nH]1	–
4.2 µM	2.79 µM	Cc1ccc2[nH]c(C(=O)Nc3ccccc3C(=O)NC(Cc3ccccc3)C(=O)O)cc2c1 (racemic)	–
9.8 µM	2.06 µM	Cc1c(C(=O)Nc2ccccc2C(=O)NC(Cc2ccccc2)C(=O)O)[nH]c2ccccc12 (racemic)	–
9.6 µM	0.937 µM	O=C(Nc1ccccc1C(=O)NC(Cc1ccccc1)C(=O)O)c1cc2c(F)cccc2[nH]1 (racemic)	–
–	3.55 µM	O=C(Nc1ccccc1C(=O)NC(Cc1ccccc1)C(=O)O)c1cc2cc([N+](=O)[O-])ccc2[nH]1 (racemic)	inhibition (Cavia porcellus [1]): 31%
16.4 µM	–	O=C(Nc1ccccc1C(=O)NC(Cc1ccccc1)C(=O)O)c1cc2ccccc2[nH]1 (racemic)	–
67.9 µM	0.151 µM	O=C(Nc1ccccc1C(=O)N[C@H](Cc1ccccc1)C(=O)O)c1cc2cc(F)ccc2[nH]1	–
–	30.1 µM	O=C(Nc1ccccc1C(=O)N[C@@H](Cc1ccccc1)C(=O)O)c1cc2cc(F)ccc2[nH]1	inhibition (Cavia porcellus [1]): 20%
8.9 µM	3.55 µM	O=C(Nc1ccccc1C(=O)N[C@@H](Cc1ccccc1)C(=O)O)c1cc2cccc(F)c2[nH]1	–
10.3 µM	–	O=C(Nc1ccccc1C(=O)NC(Cc1ccccc1)C(=O)O)c1nc2ccccc2[nH]1 (racemic)	–
17 µM	0.106 µM	O=C(Nc1ccccc1C(=O)N[C@H](Cc1ccccc1)C(=O)O)c1cc2ccccc2[nH]1	–
10.6 µM	0.314 µM	O=C(Nc1ccccc1C(=O)NC(Cc1ccccc1)C(=O)O)c1cc2cc(F)ccc2[nH]1 (racemic)	–
–	10.2 µM	O=C(Nc1ccccc1C(=O)N[C@@H](Cc1ccccc1)C(=O)O)c1cc2ccccc2[nH]1	inhibition (Cavia porcellus [10]): 52%
36.8 µM	0.294 µM	O=C(Nc1ccccc1C(=O)NC(Cc1ccccc1)C(=O)O)c1cc2ccc(F)cc2[nH]1 (racemic)	–
9.4 µM	–	O=C(Nc1ccccc1C(=O)NC(Cc1ccccc1)C(=O)O)c1cc2cc(F)cc(F)c2[nH]1 (racemic)	inhibition [2]: 59%
10.2 µM	0.671 µM	Cc1cccc2cc(C(=O)Nc3ccccc3C(=O)NC(Cc3ccccc3)C(=O)O)[nH]c12 (racemic)	–
